Data on one compound can be found in patent US7560591B2, “Benzamidine derivatives having anti-inflammatory and immunosuppressive activity” (Rotta Research Laboratorium S.p.A., priority 2001, dated 2009).

Each structure is given as a SMILES string. pIC50: −log10 of the molar value.

Series [1] has as its system formation of NO, measured as NO2− (nitrites). Nature of the series: Inhibition of NO (nitrite) formation in rabbit joint chondrocytes stimulated by IL-1β. It counts as cell-based. Conditions: Oryctolagus cuniculus, Chondrocyte, IL-1β 1 ng/ml, 48 hours, NO determined as nitrites. On the procedure:
(§1) a) The activity in inhibiting the formation of NO, measured as NO2^− (nitrites), PGE2, and neutral protease, was investigated in vitro on culture broths of rabbit joint chondrocytes stimulated by cytokine IL-1β (1 ng/ml) for 48 hours. For the preparation of the chondrocytes, the method described by Berenbaum et al [FEBS Letters 340, 51-55 (1994)] was followed. Briefly, fragments of cartilage removed under sterile conditions from the heads of rabbit shoulder, hip and knee joints were chopped finely and digested at 37° C. by hyaluronidase, trypsin and collagenase solutions, giving rise, after filtration on sterile gauze and centrifuging at 600×g and suitable dilution with 10% DMEM-FCS, to a concentration of approximately 1×10^5 cells per well. The cells were kept in these conditions until confluence (about 15 days), the broth being changed every 3 days. At this point, the products under test, dissolved in the medium, were added to each test sample and, after 20 minutes, 350 μl IL-1β was added in order to have a final concentration of 1 ng/ml. The duration of the stimulation was 48 hours at 37° C. (incubation air-CO2 7%). Measurement of the nitrites, as described by Green et al. [Anal. Biochem. 126, 131-138 (1982)], and of the PGE2s by RIA measurement, was then performed on the cell supernatant fluid. The measurement of the neutral proteases was performed in the cell supernatant fluid containing the p-aminophenyl mercury acetate (APMA) activator with the use of azocoll as the substrate and with incubation at 37° C. for 17 h as described by Chavira et al. [Anal. Biochem. 136, 446-450 (1984)]. In order to evaluate the direct inhibitory effect of the compounds under test on the hydrolytic activity of the cell supernatant fluid, they were added to the supernatant fluid containing the proteases induced by IL-1β and already activated by AMPA.
(§2) The results obtained are shown in Table 3, in which the IC50, that is, the concentration (micromolar) of antagonist which can inhibit the formation of nitrites, PGE2s, and neutral proteases, respectively, by 50% relative to the control group, that is, to the cells stimulated with IL-1β but without the addition of antagonists, is given for some of the compounds of the invention already given by way of example in Table 2.

The test system of series [2] is formation of PGE2. Nature of the series: Inhibition of PGE2 formation in rabbit joint chondrocytes stimulated by IL-1β (RIA). It counts as cell-based. Conditions: Oryctolagus cuniculus, Chondrocyte, IL-1β 1 ng/ml, 48 hours. On the procedure:
as §1, §2

Series [3] concerns plasma TNFα. Put plainly: Plasma TNFα concentration in rats after stimulation with LPS (endotoxic shock). It counts as in vivo, rat. As to conditions: for TNFα (ng/ml ± SD): plasma 90 minutes after challenge. How it is done: c) The immunosuppressive activity of Compound I-4 was evaluated in an in vivo test in the rat, in which a lipopolysaccharide (LPS) of bacterial origin, injected i.p. at a dose of 6 mg/kg, induced a shock characterised by urgent diarrhoea accompanied by a large increase in the plasma TNFα concentration.
Blood was taken from the animals which were killed 90 minutes after the challenge and the concentration of TNFα in the plasma was determined by Elisa (Amersham Kit cod. RPN2734).

Setting [4] is: 50 μg/kg ICV + LPS 6 mg/kg I.P.

In turn, `CCCCCNC(=S)Nc1ccc(NC(C)=N)cc1` [Compound I-4, N-[4-(N-acetamidine)phenyl]-N′-pentyl Thiourea] returned a melting point of 190.7 to 191.4 °C. Besides, the pIC50 in series [1] was 5.18. Besides, the pIC50 in series [2] is 5.48. Besides, in series [3] (setting [4]), the “Inhibition (%) of plasma TNFα” value was 96.2% and the “TNFα (ng/ml ± SD)” value was 2.3 ± 1.2 ng/mL. In addition, the “TNFα (ng/ml ± SD)” value in series [3] (10 mg/kg IV + LPS 6 mg/kg I.P.) was found to be 12.9 ± 7.2 ng/mL. Also, the “TNFα (ng/ml ± SD)” value in series [3] (20 mg/kg OS + LPS 6 mg/kg I.P.) came to 30.6 ± 1.0 ng/mL. Besides, the inhibition at 10 mg/kg in series [3] (Rattus norvegicus, 10 mg/kg IV + LPS 6 mg/kg I.P.) was 78.9%.
